Reference: patent publication US12077503B2, “Substituted cyclic amides and their use as herbicides” (FMC CORPORATION, priority 2015, dated 2024)

Assays:
Assay type in all cases: in vivo
[1] = system: barnyardgrass (Echinochloa crus-galli); assay: Test G Pre-Emergence Protocol; settings: Echinochloa crus-galli, pre-emergence, 312 h, evaluated after 13 days; for pest or weed control at 15.625 g/ha: 15.625 g ai/ha, read-out: Barnyard grass damage rating (100=total damage to plant; 0=no damage to plant); for pest or weed control at 62.5 g/ha: 62.5 g ai/ha, 100=total damage to plant, 0=no damage to plant, read-out: plant damage rating, Barnyardgrass; for pest or weed control at 250 g/ha: 250 g ai/ha, read-out: Barnyardgrass damage rating (100=total damage to plant; 0=no damage to plant)
In short: (§1)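 Scores are visual damage ratings from 0 (no damage) to 100 (total plant kill), taken 13 days after treatment. Compound was sprayed one day post-sowing at 15.625, 62.5 or 250 g/ha in 50:50 acetone/water with 0.5% Tween 20.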

corn (Zea mays) [2] = assay: Test G Pre-Emergence Protocol; settings: Zea mays, pre-emergence, 312 h, evaluated after 13 days; for plant injury at 15.625 g/ha: 15.625 g ai/ha; for plant injury at 15.625 g/ha / plant injury at 250 g/ha: read-out: Corn damage rating (100=total damage to plant; 0=no damage to plant); for plant injury at 62.5 g/ha: 62.5 g ai/ha, 100=total damage to plant, 0=no damage to plant, read-out: plant damage rating, Corn; for plant injury at 250 g/ha: 250 g ai/ha
In short: as §1

[3] = system: giant foxtail (Setaria faberi); assay: Test G Pre-Emergence Protocol; settings: Setaria faberi, pre-emergence, 312 h, evaluated after 13 days; for pest or weed control at 15.625 g/ha: 15.625 g ai/ha; for pest or weed control at 15.625 g/ha / pest or weed control at 250 g/ha: read-out: Foxtail, Giant damage rating (100=total damage to plant; 0=no damage to plant); for pest or weed control at 62.5 g/ha: 62.5 g ai/ha, 100=total damage to plant, 0=no damage to plant, read-out: plant damage rating, Foxtail, Giant; for pest or weed control at 250 g/ha: 250 g ai/ha
In short: as §1

[4] = system: ivy-leaved morning glory (Ipomoea hederacea); assay: Test G Pre-Emergence Protocol; settings: Ipomoea, pre-emergence, 312 h, evaluated after 13 days; for pest or weed control at 15.625 g/ha: 15.625 g ai/ha, read-out: Morning-glory, Ivy-leaved damage rating (100=total damage to plant; 0=no damage to plant); for pest or weed control at 62.5 g/ha: 62.5 g ai/ha, 100=total damage to plant, 0=no damage to plant, read-out: plant damage rating, Morningglory, Ivy-leaved; for pest or weed control at 250 g/ha: 250 g ai/ha, read-out: Morningglory, Ivy-leaved damage rating (100=total damage to plant; 0=no damage to plant)
In short: as §1

[5] = system: redroot pigweed (Amaranthus retroflexus); assay: Test G Pre-Emergence Protocol; settings: Amaranthus retroflexus, pre-emergence, 312 h, evaluated after 13 days; for pest or weed control at 15.625 g/ha: 15.625 g ai/ha; for pest or weed control at 15.625 g/ha / pest or weed control at 250 g/ha: read-out: Pigweed, Redroot damage rating (100=total damage to plant; 0=no damage to plant); for pest or weed control at 62.5 g/ha: 62.5 g ai/ha, 100=total damage to plant, 0=no damage to plant, read-out: plant damage rating, Pigweed, Redroot; for pest or weed control at 250 g/ha: 250 g ai/ha
In short: as §1

[6] = system: velvetleaf (Abutilon theophrasti); assay: Test G Pre-Emergence Protocol; settings: Abutilon theophrasti, pre-emergence, 312 h, evaluated after 13 days; for pest or weed control at 15.625 g/ha: 15.625 g ai/ha; for pest or weed control at 15.625 g/ha / pest or weed control at 250 g/ha: read-out: Velvetleaf damage rating (100=total damage to plant; 0=no damage to plant); for pest or weed control at 62.5 g/ha: 62.5 g ai/ha, 100=total damage to plant, 0=no damage to plant, read-out: plant damage rating, Velvetleaf; for pest or weed control at 250 g/ha: 250 g ai/ha
In short: as §1

[7] = system: barnyardgrass (Echinochloa crus-galli); assay: Test G Post-Emergence Protocol; settings: Echinochloa crus-galli, post-emergence, 312 h; for pest or weed control at 15.625 g/ha: 15.625 g ai/ha, evaluated after 13 days (100=total damage to plant; 0=no damage to plant), read-out: Barnyardgrass damage rating; for pest or weed control at 62.5 g/ha: 62.5 g ai/ha, read-out: Barnyardgrass damage rating (100=total damage to plant; 0=no damage to plant); for pest or weed control at 62.5 g/ha / pest or weed control at 250 g/ha: evaluated after 13 days; for pest or weed control at 250 g/ha: 250 g ai/ha, read-out: damage to plant, Barnyardgrass (100=total damage to plant; 0=no damage to plant)
In short: (§2)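 Post-emergence herbicidal damage, scored visually 0–100 at 13 days. Application at 15.625, 62.5 or 250 g/ha onto 8-day-old plants grown under glasshouse control.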

corn (Zea mays) [8] = assay: Test G Post-Emergence Protocol; settings: Zea mays, post-emergence, 312 h; for plant injury at 15.625 g/ha: 15.625 g ai/ha, evaluated after 13 days (100=total damage to plant; 0=no damage to plant), read-out: Corn damage rating; for plant injury at 62.5 g/ha: 62.5 g ai/ha, read-out: Corn damage rating (100=total damage to plant; 0=no damage to plant); for plant injury at 62.5 g/ha / plant injury at 250 g/ha: evaluated after 13 days; for plant injury at 250 g/ha: 250 g ai/ha, read-out: damage to plant, Corn (100=total damage to plant; 0=no damage to plant)
In short: as §2

[9] = system: giant foxtail (Setaria faberi); assay: Test G Post-Emergence Protocol; settings: Setaria faberi, post-emergence, 312 h; for pest or weed control at 15.625 g/ha: 15.625 g ai/ha, evaluated after 13 days (100=total damage to plant; 0=no damage to plant), read-out: Foxtail, Giant damage rating; for pest or weed control at 62.5 g/ha: 62.5 g ai/ha, read-out: Foxtail, Giant damage rating (100=total damage to plant; 0=no damage to plant); for pest or weed control at 62.5 g/ha / pest or weed control at 250 g/ha: evaluated after 13 days; for pest or weed control at 250 g/ha: 250 g ai/ha, read-out: damage to plant, Foxtail, Giant (100=total damage to plant; 0=no damage to plant)
In short: as §2

[10] = system: ivy-leaved morning glory (Ipomoea hederacea); assay: Test G Post-Emergence Protocol; settings: Ipomoea, post-emergence, 312 h; for pest or weed control at 15.625 g/ha: 15.625 g ai/ha, evaluated after 13 days (100=total damage to plant; 0=no damage to plant), read-out: Morningglory, Ivy-leaved damage rating; for pest or weed control at 62.5 g/ha: 62.5 g ai/ha, read-out: Morningglory, Ivy-leaved damage rating (100=total damage to plant; 0=no damage to plant); for pest or weed control at 62.5 g/ha / pest or weed control at 250 g/ha: evaluated after 13 days; for pest or weed control at 250 g/ha: 250 g ai/ha, read-out: damage to plant, Morningglory, Ivy-leaved (100=total damage to plant; 0=no damage to plant)
In short: as §2

[11] = system: redroot pigweed (Amaranthus retroflexus); assay: Test G Post-Emergence Protocol; settings: Amaranthus retroflexus, post-emergence, 312 h; for pest or weed control at 15.625 g/ha: 15.625 g ai/ha, evaluated after 13 days (100=total damage to plant; 0=no damage to plant), read-out: Pigweed, Redroot damage rating; for pest or weed control at 62.5 g/ha: 62.5 g ai/ha, read-out: Pigweed, Redroot damage rating (100=total damage to plant; 0=no damage to plant); for pest or weed control at 62.5 g/ha / pest or weed control at 250 g/ha: evaluated after 13 days; for pest or weed control at 250 g/ha: 250 g ai/ha, read-out: damage to plant, Pigweed, Redroot (100=total damage to plant; 0=no damage to plant)
In short: as §2

[12] = system: velvetleaf (Abutilon theophrasti); assay: Test G Post-Emergence Protocol; settings: Abutilon theophrasti, post-emergence, 312 h; for pest or weed control at 15.625 g/ha: 15.625 g ai/ha, evaluated after 13 days (100=total damage to plant; 0=no damage to plant), read-out: Velvetleaf damage rating; for pest or weed control at 62.5 g/ha: 62.5 g ai/ha, read-out: Velvetleaf damage rating (100=total damage to plant; 0=no damage to plant); for pest or weed control at 62.5 g/ha / pest or weed control at 250 g/ha: evaluated after 13 days; for pest or weed control at 250 g/ha: 250 g ai/ha, read-out: damage to plant, Velvetleaf (100=total damage to plant; 0=no damage to plant)
In short: as §2

Structure (SMILES) | pest or weed control at 15.625 g/ha [1] [%] | pest or weed control at 62.5 g/ha [1] [%] | pest or weed control at 250 g/ha [1] [%] | plant injury at 15.625 g/ha (corn (Zea mays) [2]) [%] | plant injury at 62.5 g/ha (corn (Zea mays) [2]) [%] | plant injury at 250 g/ha (corn (Zea mays) [2]) [%] | pest or weed control at 15.625 g/ha [3] [%] | pest or weed control at 62.5 g/ha [3] [%] | pest or weed control at 250 g/ha [3] [%] | pest or weed control at 15.625 g/ha [4] [%] | pest or weed control at 62.5 g/ha [4] [%] | pest or weed control at 250 g/ha [4] [%] | pest or weed control at 15.625 g/ha [5] [%] | pest or weed control at 62.5 g/ha [5] [%] | pest or weed control at 250 g/ha [5] [%] | pest or weed control at 15.625 g/ha [6] [%] | pest or weed control at 62.5 g/ha [6] [%] | pest or weed control at 250 g/ha [6] [%] | pest or weed control at 15.625 g/ha [7] [%] | pest or weed control at 62.5 g/ha [7] [%] | other results
Cc1cc([C@@H]2CN(C)C(=O)[C@H]2C(=O)Nc2cccc(F)c2F)cc(Cl)n1 (racemic) [Compound 1481] | 20 | 40 | 80 | 30 | 30 | 60 | 40 | 60 | 90 | 0 | 0 | 10 | 0 | 0 | 20 | 0 | 0 | 10 | 30 | 60 | pest or weed control at 250 g/ha [7]: 70%; plant injury at 15.625 g/ha (corn (Zea mays) [8]): 20%; plant injury at 62.5 g/ha (corn (Zea mays) [8]): 20%; plant injury at 250 g/ha (corn (Zea mays) [8]): 60%; pest or weed control at 15.625 g/ha [9]: 40%; pest or weed control at 62.5 g/ha [9]: 60%; pest or weed control at 250 g/ha [9]: 70%; pest or weed control at 15.625 g/ha [10]: 0%; pest or weed control at 62.5 g/ha [10]: 10%; pest or weed control at 250 g/ha [10]: 80%; pest or weed control at 15.625 g/ha [11]: 0%; pest or weed control at 62.5 g/ha [11]: 0%; pest or weed control at 250 g/ha [11]: 20%; pest or weed control at 15.625 g/ha [12]: 0%; pest or weed control at 62.5 g/ha [12]: 0%; pest or weed control at 250 g/ha [12]: 10%
Cc1cc(NC(=O)[C@@H]2C(=O)N(C)C[C@H]2c2ccc(C(F)(F)F)cc2)sn1 (racemic) [Compound 1560] | 0 | 0 | 10 | 0 | 0 | 10 | 0 | 0 | 10 | 0 | 0 | 0 | 0 | 0 | 0 | 0 | 0 | 0 | 0 | 0 | pest or weed control at 250 g/ha [7]: 20%; plant injury at 15.625 g/ha (corn (Zea mays) [8]): 0%; plant injury at 62.5 g/ha (corn (Zea mays) [8]): 0%; plant injury at 250 g/ha (corn (Zea mays) [8]): 0%; pest or weed control at 15.625 g/ha [9]: 0%; pest or weed control at 62.5 g/ha [9]: 0%; pest or weed control at 250 g/ha [9]: 20%; pest or weed control at 15.625 g/ha [10]: 0%; pest or weed control at 62.5 g/ha [10]: 0%; pest or weed control at 250 g/ha [10]: 0%; pest or weed control at 15.625 g/ha [11]: 0%; pest or weed control at 62.5 g/ha [11]: 0%; pest or weed control at 250 g/ha [11]: 20%; pest or weed control at 15.625 g/ha [12]: 0%; pest or weed control at 62.5 g/ha [12]: 0%; pest or weed control at 250 g/ha [12]: 10%
